Results published in patent US20230150944A1, “PESTICIDALLY ACTIVE HETEROCYCLIC DERIVATIVES WITH SULFOXIMINE CONTAINING SUBSTITUENTS” (SYNGENTA CROP PROTECTION AG, priority 2018, published 2023).

Tests used:
Type in all cases: in vivo
[1] = system: Euschistus heros (Neotropical Brown Stink Bug); assay: Example B3: Activity on Euschistus heros, soybean leaf spray; settings: 120 h, application rate of 200 ppm, N2 nymphs on soybean leaves, 5 days after infestation, read-out: effect in at least one of the two categories (mortality or growth inhibition)
Experimental: Example B3: Activity on Euschistus heros (Neotropical Brown Stink Bug)
Soybean leaves on agar in 24-well microtiter plates were sprayed with aqueous test solutions prepared from 10′000 ppm DMSO stock solutions. After drying the leaves were infested with N2 nymphs. The samples were assessed for mortality and growth inhibition in comparison to untreated samples 5 days after infestation.

[2] = system: Myzus persicae (Green Peach Aphid); assay: Example B5: Activity on Myzus persicae, pea seedling roots in test solution; settings: 144 h, test rate of 24 ppm, roots of infested pea seedlings placed into test solution, 6 days
Experimental: Example B5: Activity on Myzus persicae (Green Peach Aphid)
Roots of pea seedlings infested with an aphid population of mixed ages were placed directly into aqueous test solutions prepared from 10′000 DMSO stock solutions. The samples were assessed for mortality 6 days after placing seedlings into test solutions.

[3] = system: Myzus persicae (Green Peach Aphid); assay: Example B4: Activity on Myzus persicae, sunflower leaf disc spray; settings: foliar, 144 h, application rate of 200 ppm, mixed-age aphids on sprayed sunflower leaf discs, 6 days after infestation
Experimental: Example B4: Activity on Myzus persicae (Green Peach Aphid)
Sunflower leaf discs were placed onto agar in a 24-well microtiter plate and sprayed with aqueous test solutions prepared from 10′000 ppm DMSO stock solutions. After drying, the leaf discs were infested with an aphid population of mixed ages. The samples were assessed for mortality 6 days after infestation.

[4] = system: Plutella xylostella (Diamond Back Moth); assay: Example B6: Activity on Plutella xylostella, artificial diet, L2 larvae; settings: 120 h, application rate of 200 ppm, 5 days after infestation, read-out: effect in at least one of the two categories (mortality or growth inhibition)
Experimental: Example B6: Activity on Plutella xylostella (Diamond Back Moth)
24-well microtiter plates with artificial diet were treated with aqueous test solutions prepared from 10′000 ppm DMSO stock solutions by pipetting. After drying, the plates were infested with L2 larvae (10 to 15 per well). The samples were assessed for mortality and growth inhibition in comparison to untreated samples 5 days after infestation.

[5] = system: Diabrotica balteata (Corn Root Worm); assay: Example B2: Activity on Diabrotica balteata, maize sprout spray; settings: 96 h, application rate of 200 ppm, L2 larvae on maize sprouts, 4 days after infestation, read-out: effect in at least one of the two categories (mortality or growth inhibition)
Experimental: Example B2: Activity on Diabrotica balteata (Corn Root Worm)
Maize sprouts placed onto an agar layer in 24-well microtiter plates were treated with aqueous test solutions prepared from 10′000 ppm DMSO stock solutions by spraying. After drying, the plates were infested with L2 larvae (6 to 10 per well). The samples were assessed for mortality and growth inhibition in comparison to untreated samples 4 days after infestation.

[6] = system: Spodoptera littoralis (Egyptian Cotton Leaf Worm); assay: Example B7: Activity on Spodoptera littoralis, cotton leaf disc spray; settings: foliar, 72 h, application rate of 200 ppm, L1 larvae on cotton leaf discs, 3 days after infestation, read-out: control (mortality, anti-feeding effect or growth inhibition)
Experimental: Example B7: Activity on Spodoptera littoralis (Egyptian Cotton Leaf Worm)
Cotton leaf discs were placed onto agar in 24-well microtiter plates and sprayed with aqueous test solutions prepared from 10′000 ppm DMSO stock solutions. After drying the leaf discs were infested with five L1 larvae. The samples were assessed for mortality, anti-feeding effect, and growth inhibition in comparison to untreated samples 3 days after infestation. Control of Spodoptera littoralis by a test sample is given when at least one of the categories mortality, anti-feedant effect, and growth inhibition is higher than the untreated sample.

[7] = system: Bemisia tabaci (Cotton White Fly); assay: Example B1: Activity on Bemisia tabaci, cotton leaf disc spray; settings: foliar, 144 h, application rate of 200 ppm, adult white flies on cotton leaf discs, 6 days after incubation
Experimental: Example B1: Activity on Bemisia tabaci (Cotton White Fly)
Cotton leaf discs were placed on agar in 24-well microtiter plates and sprayed with aqueous test solutions prepared from 10′000 ppm DMSO stock solutions. After drying the leaf discs were infested with adult white flies. The samples were checked for mortality 6 days after incubation.

CCS(=N)(=O)c1cc(C2(C#N)CC2)ccc1-c1nc2cc(SC(F)(F)F)ncc2n1C (stereo not shown) [Example P9, 1-[3-(ethylsulfonimidoyl)-4-[3-methyl-6-(trifluoromethylsulfanyl)imidazo[4,5-c]pyridin-2-yl]phenyl]cyclopropanecarbonitrile]
≥ 80%: percent effect (mortality or growth inhibition) at 200 ppm [1] | mortality at 24 ppm [2] | mortality at 200 ppm [3]

CCS(=N)(=O)c1cc(C2CC2)cnc1-c1nc2cc(C(F)(F)F)ncc2n1C (stereo not shown) [Example P5, [5-cyclopropyl-2-[3-methyl-6-(trifluoromethyl)imidazo[4,5-c]pyridin-2-yl]-3-pyridyl]-ethyl-imino-oxo-λ^6-sulfane]
≥ 80%: percent effect (mortality or growth inhibition) at 200 ppm [4] | mortality at 24 ppm [2] | percent effect (mortality or growth inhibition) at 200 ppm [5] | percent control (mortality, anti-feedant effect or growth inhibition) at 200 ppm [6] | mortality at 200 ppm [3]

CCS(=N)(=O)c1cc(C2(C#N)CC2)cnc1-c1nc2cc(C(F)(F)F)n(OC)c(=O)c2n1C (stereo not shown) [Example P8, 1-[5-(ethylsulfonimidoyl)-6-[5-methoxy-3-methyl-4-oxo-6-(trifluoromethyl)imidazo[4,5-c]pyridin-2-yl]-3-pyridyl]cyclopropanecarbonitrile]
≥ 80%: percent effect (mortality or growth inhibition) at 200 ppm [4] | percent effect (mortality or growth inhibition) at 200 ppm [1] | mortality at 24 ppm [2] | percent effect (mortality or growth inhibition) at 200 ppm [5] | mortality at 200 ppm [7] | percent control (mortality, anti-feedant effect or growth inhibition) at 200 ppm [6] | mortality at 200 ppm [3]

CCS(=N)(=O)c1cc(C2(C#N)CC2)ccc1-c1nc2cc(C(F)(F)F)ncc2n1C (stereo not shown) [Example P13, 1-[3-(ethylsulfonimidoyl)-4-[3-methyl-6-(trifluoromethyl)imidazo[4,5-c]pyridin-2-yl]phenyl]cyclopropanecarbonitrile]
≥ 80%: percent effect (mortality or growth inhibition) at 200 ppm [1] | mortality at 24 ppm [2] | percent effect (mortality or growth inhibition) at 200 ppm [5] | mortality at 200 ppm [7] | mortality at 200 ppm [3]

CCS(=N)(=O)c1cc(C2CC2)cnc1-c1nc2cc(C(F)(F)F)cnc2n1C (stereo not shown) [Example P12, [5-cyclopropyl-2-[3-methyl-6-(trifluoromethyl)imidazo[4,5-b]pyridin-2-yl]-3-pyridyl]-ethyl-imino-oxo-λ^6-sulfane]
≥ 80%: percent effect (mortality or growth inhibition) at 200 ppm [4] | mortality at 24 ppm [2] | percent effect (mortality or growth inhibition) at 200 ppm [5] | percent control (mortality, anti-feedant effect or growth inhibition) at 200 ppm [6] | mortality at 200 ppm [3]

CCS(=N)(=O)c1cc(C2CC2)cnc1-c1nc2cc(SC(F)(F)F)ncc2n1C (stereo not shown) [Example P4, [5-cyclopropyl-2-[3-methyl-6-(trifluoromethylsulfanyl)imidazo[4,5-c]pyridin-2-yl]-3-pyridyl]-ethyl-imino-oxo-λ^6-sulfane]
≥ 80%: percent effect (mortality or growth inhibition) at 200 ppm [4] | percent effect (mortality or growth inhibition) at 200 ppm [1] | mortality at 24 ppm [2] | percent effect (mortality or growth inhibition) at 200 ppm [5] | mortality at 200 ppm [7] | percent control (mortality, anti-feedant effect or growth inhibition) at 200 ppm [6] | mortality at 200 ppm [3]

CCS(=N)(=O)c1cc(C2CC2)cnc1-c1nc2cc(C(F)(F)F)nnc2n1C (stereo not shown) [Example P11, [5-cyclopropyl-2-[7-methyl-3-(trifluoromethyl)imidazo[4,5-c]pyridazin-6-yl]-3-pyridyl]-ethyl-imino-oxo-λ^6-sulfane]
≥ 80%: percent effect (mortality or growth inhibition) at 200 ppm [4] | mortality at 24 ppm [2] | percent effect (mortality or growth inhibition) at 200 ppm [5] | percent control (mortality, anti-feedant effect or growth inhibition) at 200 ppm [6] | mortality at 200 ppm [3]

CCS(=N)(=O)c1cc(C2(C#N)CC2)ccc1-c1nc2cc(C(F)(F)F)cnc2n1C (stereo not shown) [Example P15, 1-[3-(ethylsulfonimidoyl)-4-[3-methyl-6-(trifluoromethyl)imidazo[4,5-b]pyridin-2-yl]phenyl]cyclopropanecarbonitrile]
≥ 80%: percent effect (mortality or growth inhibition) at 200 ppm [4] | percent effect (mortality or growth inhibition) at 200 ppm [1] | mortality at 24 ppm [2] | mortality at 200 ppm [7] | percent control (mortality, anti-feedant effect or growth inhibition) at 200 ppm [6] | mortality at 200 ppm [3]

CCS(=N)(=O)c1cc(C2(C#N)CC2)cnc1-c1nc2cc(C(F)(F)F)nnc2n1C (stereo not shown) [Example P10, 1-[5-(ethylsulfonimidoyl)-6-[7-methyl-3-(trifluoromethyl)imidazo[4,5-c]pyridazin-6-yl]-3-pyridyl]cyclopropanecarbonitrile]
≥ 80%: percent effect (mortality or growth inhibition) at 200 ppm [1] | mortality at 24 ppm [2] | percent effect (mortality or growth inhibition) at 200 ppm [5] | mortality at 200 ppm [7] | mortality at 200 ppm [3]

CCn1c(C(F)(F)F)cc2nc(-c3ncc(C4(C#N)CC4)cc3S(=N)(=O)CC)n(C)c2c1=O (stereo not shown) [Example P14, 1-[6-[5-ethyl-3-methyl-4-oxo-6-(trifluoromethyl)imidazo[4,5-c]pyridin-2-yl]-5-(ethylsulfonimidoyl)-3-pyridyl] cyclopropanecarbonitrile]
≥ 80%: percent effect (mortality or growth inhibition) at 200 ppm [4] | percent effect (mortality or growth inhibition) at 200 ppm [1] | mortality at 24 ppm [2] | percent effect (mortality or growth inhibition) at 200 ppm [5] | mortality at 200 ppm [7] | percent control (mortality, anti-feedant effect or growth inhibition) at 200 ppm [6] | mortality at 200 ppm [3]

CCS(=N)(=O)c1cc(C2CC2)cnc1-n1cc2cnc(C(F)(F)F)cc2n1 (stereo not shown) [Example P7, [5-cyclopropyl-2-[6-(trifluoromethyl)pyrazolo[4,3-c]pyridin-2-yl]-3-pyridyl]-ethyl-imino-oxo-λ^6-sulfane]
≥ 80%: percent effect (mortality or growth inhibition) at 200 ppm [4] | mortality at 24 ppm [2] | percent effect (mortality or growth inhibition) at 200 ppm [5] | percent control (mortality, anti-feedant effect or growth inhibition) at 200 ppm [6] | mortality at 200 ppm [3]

CCS(=N)(=O)c1cc(C2(C#N)CC2)cnc1-c1nc2cc(C(F)(F)F)cnc2n1C (stereo not shown) [Example P6, 1-[5-(ethylsulfonimidoyl)-6-[3-methyl-6-(trifluoromethyl)imidazo[4,5-b]pyridin-2-yl]-3-pyridyl]cyclopropanecarbonitrile]
≥ 80%: percent effect (mortality or growth inhibition) at 200 ppm [4] | mortality at 24 ppm [2] | mortality at 200 ppm [7] | mortality at 200 ppm [3]
